Reference: patent USRE47350E1, “Pharmaceutical formulations containing dopamine receptor ligands” (Richter Gedeon Nyrt., priority 2008, dated 2019)
Like-named read-outs stand apart in the source and are kept apart here.

How the values were obtained:
[1] = Double-blind placebo controlled single dose pharmacokinetic study of cariprazine capsules in healthy male volunteers (Example 4); assay type: in vivo, human; conditions: for Cmax / Tmax / half-life / AUC(0-t): male, human, plasma, oral; for AUC(0-t): read-out: AUC0-168
Experimental: The pharmacokinetic parameters described herein include area under the plasma concentration-time curve (AUC0-t and AUC0-∞), maximum plasma concentration (Cmax), time of maximum plasma concentration (Tmax) and terminal elimination half-life (T1/2). The time of maximum concentration, Tmax, is determined as the time corresponding to Cmax. Area under the plasma concentration-time curve up to the time corresponding to the last measurable concentration (AUC0-t) is calculated by numerical integration using the linear trapezoidal rule as follows: The terminal half-life (T1/2) is calculated using the following equation: The area under the plasma concentration-time curve from time zero to infinity is calculated according to the following equation: A double-blind, placebo controlled single dose study of the pharmacokinetic parameters of cariprazine (capsules) in healthy male volunteers was conducted. [table] The composition of the capsules is given below in Table 31. The mean pharmacokinetic parameters observed after administration of a single dose of 0.5 to 2.5 mg cariprazine are shown below in Table 32.

[2] = Linear calculated pharmacokinetic parameters (Table 33); assay type: in vivo; conditions: human, plasma, po; for AUC(0-t): read-out: Mean AUC0-168
Experimental: Linear calculated pharmacokinetic parameters (based on the 2.0 mg data (Table 35, 80% of AUClast, Treatment I) for dosages greater than 2.0 mg and on the 0.5 mg data for dosages lower than 0.5 mg (Table 33) are shown in Table 33.

[3] = Single-center, randomized, open-label, parallel-group single-dose study, 2-mg tablet fasted/fed (Example 5); assay type: in vivo; conditions: both sexes, human, plasma, po, mean, single oral 2-mg tablet; for half-life: read-out: T½ (converted)
Experimental: The objectives of this study were (i) to assess the effect of food on the oral bioavailability of cariprazine (2-mg tablet), (ii) to assess the effect of gender on the oral bioavailability of cariprazine after a single oral dose (2-mg tablet), and (iii) to evaluate the pharmacokinetics of cariprazine and its metabolites after an oral dose (2-mg tablet). This clinical study was conducted as a single-center, randomized, open-label, parallel-group single-dose study. A total of 42 healthy male and female patients aged 18-45 years were selected, with an approximate male-to-female ratio of 1:1. Dosing occurred in two treatment sessions (Treatment 1 and Treatment 2) separated by 5 to 7 days. The subjects were randomized with ˜1:1 male-female ratio to receive one of the following two treatments: • Treatment 1: • Single oral dose of one 2-mg cariprazine tablet under fasted conditions (12 female, 11 male subjects) • Treatment 2: • Single oral dose of one 2-mg cariprazine tablet under fed conditions (10 female, 9 male subjects) Subjects were given the study drug with 240 mL of water in the clinic under fed/fasted conditions at 0800 hours on Day 1. Subjects taking Treatment 1 underwent a 10-hour overnight fast before dosing on Day 1 and continued fasting for an additional 4 hours postdose. Subjects taking Treatment 2 underwent a 10-hour overnight fast before eating a US Food and Drug Administration standardized high-fat breakfast at 0730 hours on Dosing Day 1. This study was 30 days in duration (Day −1 through the last pharmacokinetic (PK) blood sample collection on Day 29). Blood sampling was performed at the following times to determine cariprazine plasma concentrations: 0.0 (predose), 0.5, 1, 2, 3, 4, 6, 8, 12, 24, 36, 48, 72, 96, 168, 336, 504 and 672 hours postdose.

[4] = Multiple dose study in healthy male volunteers (Example 6); assay type: in vivo; conditions: human, plasma, fasted; for AUC: read-out: AUC0-τ
Experimental: Thirty-two healthy male subjects (mean age=24.9 years) were randomized into 4 groups (I-IV). In each group, 2 subjects received placebo and 6 subjects received one of the following treatments: • (I) 7 doses of 0.5 mg cariprazine administered every other day; • (II) 14 doses of 0.5 mg cariprazine every day; • (III) 2 doses of 0.5 mg cariprazine followed by 12 doses of 1.0 mg cariprazine every day; and • (IV) 21 doses of 1.0 mg cariprazine every day. Plasma samples were analyzed for cariprazine by a validated LC-MS/MS assay (Internal Standards: deuterated compounds; Sample preparation: Liquid-liquid extraction after alkalization; Sample Volume: 1 mL; Calibration Range: 0.05-25 ng/mL; Inonization: +ESI with MRM mode). The design of the study is shown below in Table 35. [table]

[5] = Hydrolytic degradation when formulated with commonly used excipients (general statements); assay type: physicochemical
Excerpt: The formation of a degradation product such as De-BOC in a pharmaceutical formulation is detrimental to activity. Moreover, if the amount of degradation product exceeds FDA guidelines, additional safety and toxicology testing must be undertaken. Thus, it is important that stable and bioavailable formulations containing, for example, cariprazine and its salts, be developed, in which the amount of degradation product present falls within accepted FDA guidelines.
The preparation of stable and bioavailable dosage forms containing compounds of formula (I) is; however, not straightforward.

[6] = mean, single dose 0.5 mg capsules, fasted, Group III Period 1
[7] = mean, single dose 1 mg capsules, fasted, Group I Period 1
[8] = mean, single dose 1.5 mg capsules, fasted, Group II Period 2
[9] = mean, single dose 2 mg capsules, fasted, Group I Period 2
[10] = mean, single dose 2.5 mg capsules, fasted, Group II Period 1
[11] = 0.5 mg, Group I: 7 doses of 0.5 mg every other day
[12] = 0.5 mg, Group II: 14 doses of 0.5 mg every day
[13] = 1 mg, Group IV: 21 doses of 1.0 mg every day
[14] = Group III: 2 doses of 0.5 mg followed by 12 doses of 1.0 mg every day

Q: With CN(C)C(=O)N[C@H]1CC[C@H](CCN2CCN(c3cccc(Cl)c3Cl)CC2)CC1 [cariprazine, trans-1{4-[2-[4-(2,3-dichlorophenyl)-piperazin-1-yl]-ethyl]-cyclohexyl}-3,3-dimethyl-urea] as the molecule, how does the Cmax [1, 6] read?
A: 0.14 ng/mL

Q: What about the Tmax [1, 6] of the same molecule?
A: 6 h

Q: And the half-life [1, 6]?
A: 217 h

Q: What about the AUC(0-t) [1, 6] of the same molecule?
A: 14.1 ng·h/mL

Q: What about the Cmax [1, 7] of the same molecule?
A: 0.76 ng/mL

Q: What about the Tmax [1, 7] of the same molecule?
A: 3 h

Q: What about the half-life [1, 7] of the same molecule?
A: 185 h

Q: And the AUC(0-t) [1, 7]?
A: 35.4 ng·h/mL

Q: What about the Cmax [1, 8] of the same molecule?
A: 1.19 ng/mL

Q: What about the Tmax [1, 8] of the same molecule?
A: 3 h

Q: What about the half-life [1, 8] of the same molecule?
A: 130 h

Q: And the AUC(0-t) [1, 8]?
A: 46.7 ng·h/mL

Q: And the Cmax [1, 9]?
A: 2.53 ng/mL

Q: What about the Tmax [1, 9] of the same molecule?
A: 3 h

Q: And the half-life [1, 9]?
A: 130 h

Q: And the AUC(0-t) [1, 9]?
A: 95.3 ng·h/mL

Q: What about the Cmax [1, 10] of the same molecule?
A: 2.5 ng/mL

Q: And the Tmax [1, 10]?
A: 4 h

Q: And the half-life [1, 10]?
A: 138 h

Q: What about the AUC(0-t) [1, 10] of the same molecule?
A: 97.5 ng·h/mL

Q: What about the Tmax ([1]; single dose 0.5 to 2.5 mg) of the same molecule?
A: 3 to 6 h

Q: And the Cmax ([2]; dose 0.1 mg)?
A: 0.03 ng/mL

Q: What about the AUC(0-t) ([2]; dose 0.1 mg) of the same molecule?
A: 2.82 ng·h/mL

Q: What about the Cmax ([2]; dose 0.25 mg) of the same molecule?
A: 0.09 ng/mL

Q: What about the AUC(0-t) ([2]; dose 0.25 mg) of the same molecule?
A: 1.05 ng·h/mL

Q: What about the Cmax ([2]; dose 3 mg) of the same molecule?
A: 3.8 ng/mL

Q: What about the AUC(0-t) ([2]; dose 3 mg) of the same molecule?
A: 96.8 ng·h/mL

Q: What about the Cmax ([2]; dose 4.5 mg) of the same molecule?
A: 5.7 ng/mL

Q: What about the AUC(0-t) ([2]; dose 4.5 mg) of the same molecule?
A: 145 ng·h/mL

Q: And the Cmax ([2]; dose 5 mg)?
A: 6.33 ng/mL

Q: What about the AUC(0-t) ([2]; dose 5 mg) of the same molecule?
A: 161 ng·h/mL

Q: What about the Cmax ([2]; dose 6 mg) of the same molecule?
A: 7.6 ng/mL

Q: What about the AUC(0-t) ([2]; dose 6 mg) of the same molecule?
A: 194 ng·h/mL

Q: What about the Cmax ([2]; dose 7.5 mg) of the same molecule?
A: 9.5 ng/mL

Q: What about the AUC(0-t) ([2]; dose 7.5 mg) of the same molecule?
A: 242 ng·h/mL

Q: And the Cmax ([2]; dose 9 mg)?
A: 11.4 ng/mL

Q: And the AUC(0-t) ([2]; dose 9 mg)?
A: 290 ng·h/mL

Q: And the Cmax ([2]; dose 12.5 mg)?
A: 15.8 ng/mL

Q: And the AUC(0-t) ([2]; dose 12.5 mg)?
A: 404 ng·h/mL

Q: And the Cmax ([2]; dose 15 mg)?
A: 19 ng/mL

Q: What about the AUC(0-t) ([2]; dose 15 mg) of the same molecule?
A: 484 ng·h/mL

Q: And the AUC(0-inf) ([3]; Fed)?
A: 97 ng·h/mL

Q: What about the AUC(0-t) ([3]; Fed) of the same molecule?
A: 89.2 ng·h/mL

Q: And the Cmax ([3]; Fed)?
A: 1.72 ng/mL

Q: And the Tmax ([3]; Fed)?
A: 9.21 h

Q: And the half-life ([3]; Fed)?
A: 198 h

Q: And the AUC(0-inf) ([3]; Treatment 1 (Fasted))?
A: 89.9 ng·h/mL

Q: What about the AUC(0-t) ([3]; Treatment 1 (Fasted)) of the same molecule?
A: 80.7 ng·h/mL

Q: And the Cmax ([3]; Treatment 1 (Fasted))?
A: 1.99 ng/mL

Q: What about the Tmax ([3]; Treatment 1 (Fasted)) of the same molecule?
A: 4.91 h

Q: And the half-life ([3]; Treatment 1 (Fasted))?
A: 203 h

Q: What about the Cmax [4, 11] of the same molecule?
A: 1.03 ng/mL

Q: What about the AUC [4, 11] of the same molecule?
A: 32.9 ng·h/mL

Q: And the Tmax ([4]; 0.5 mg, Group I: 7 doses of 0.5 mg every other day, read-out: tmax)?
A: 4 h

Q: What about the Cmax [4, 12] of the same molecule?
A: 1.42 ng/mL

Q: What about the AUC [4, 12] of the same molecule?
A: 25 ng·h/mL

Q: And the Tmax ([4]; 0.5 mg, Group II: 14 doses of 0.5 mg every day, read-out: tmax)?
A: 3.5 h

Q: What about the Cmax [4, 13] of the same molecule?
A: 3.9 ng/mL

Q: And the AUC [4, 13]?
A: 56.8 ng·h/mL

Q: What about the Tmax ([4]; 1 mg, Group IV: 21 doses of 1.0 mg every day, read-out: tmax (range only printed)) of the same molecule?
A: 2 to 3 h

Q: And the Cmax [4, 14]?
A: 3.19 ng/mL

Q: What about the AUC [4, 14] of the same molecule?
A: 53.6 ng·h/mL

Q: And the Tmax ([4]; Group III: 2 doses of 0.5 mg followed by 12 doses of 1.0 mg every day, read-out: tmax)?
A: 4 h

Q: Which results are given for CN(C)C(=O)N[C@H]1CC[C@H](CCN2CCN(c3cccc(Cl)c3Cl)CC2)CC1.Cl [cariprazine hydrochloride, trans-1{4-[2-[4-(2,3-dichlorophenyl)-piperazin-1-yl]-ethyl]-cyclohexyl}-3,3-dimethyl-urea hydrochloride]?
A: dose proportionality of exposure relative to mean AUC ([1]; single-dose range of 0.5 mg to 2.5 mg): approximate dose proportionality; stability toward hydrolytic degradation product formation [5]: undergoes hydrolytic cleavage of the amide bond
